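Dose response: 5 concentrations. Exposure: 48 h. Format: 96-well plates. Endpoint: linear interpolation; highest concentration if not reached. GI50 = concentration required for 50% inhibition of growth. TGI: total growth inhibition.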
How the values were obtained:
Experiment in all cases: NCI tumour cell line growth inhibition, 48 h
HS 578T breast = test system: HS 578T breast
HCT-116 colon = test system: HCT-116 colon
SK-MEL-5 melanoma = test system: SK-MEL-5 melanoma
OVCAR-5 ovarian = test system: OVCAR-5 ovarian
NCI/ADR-RES ovarian = test system: NCI/ADR-RES ovarian
MDA-MB-435 = test system: MDA-MB-435
HOP-92 NSCLC = test system: HOP-92 NSCLC
NCI-H522 lung = test system: NCI-H522 lung
SF-539 CNS = test system: SF-539 CNS
EKVX NSCLC = test system: EKVX NSCLC
U251 CNS = test system: U251 CNS
CAKI-1 renal = test system: CAKI-1 renal
MALME-3M melanoma = test system: MALME-3M melanoma
DU-145 prostate = test system: DU-145 prostate
M14 melanoma = test system: M14 melanoma
NCI-H226 lung = test system: NCI-H226 lung
SR leukemia = test system: SR leukemia
MOLT-4 leukemia = test system: MOLT-4 leukemia
HL-60(TB) leukemia = test system: HL-60(TB) leukemia
A498 renal = test system: A498 renal
HCC-2998 colon = test system: HCC-2998 colon
SF-268 CNS = test system: SF-268 CNS
SK-MEL-28 melanoma = test system: SK-MEL-28 melanoma
BT-549 breast = test system: BT-549 breast
CCRF-CEM leukemia = test system: CCRF-CEM leukemia
SN12C renal = test system: SN12C renal
UACC-62 melanoma = test system: UACC-62 melanoma
RXF 393 renal = test system: RXF 393 renal
LOX IMVI melanoma = test system: LOX IMVI melanoma

With `O=C1C(c2ccccc2)=C(N2CCc3ccccc32)OC1(Cl)Cl` the TGI (HS 578T breast) was greater than 100 µM, the GI50 (HCT-116 colon) was 1.58 µM and the TGI (HCT-116 colon) was 8.04 µM. The GI50 (SK-MEL-5 melanoma) was 4.35 µM, the TGI (SK-MEL-5 melanoma) was 16.9 µM and the GI50 (OVCAR-5 ovarian) was 3.57 µM. The TGI (OVCAR-5 ovarian) was 10.4 µM, the GI50 (NCI/ADR-RES ovarian) was 3.21 µM and the TGI (NCI/ADR-RES ovarian) was greater than 100 µM. It also gave a GI50 (MDA-MB-435) of 3.26 µM, a TGI (MDA-MB-435) of 11.4 µM and a GI50 (HOP-92 NSCLC) of 1.81 µM. The TGI (HOP-92 NSCLC) was 5.21 µM, the GI50 (NCI-H522 lung) was 1.7 µM and the TGI (NCI-H522 lung) was 4.17 µM. The GI50 (SF-539 CNS) was 2.19 µM, the TGI (SF-539 CNS) was 5.17 µM and the GI50 (EKVX NSCLC) was 2.7 µM. It also gave a TGI (EKVX NSCLC) of 8.94 µM, a GI50 (U251 CNS) of 7.34 µM and a TGI (U251 CNS) of 21.6 µM. The GI50 (CAKI-1 renal) was 1.47 µM, the TGI (CAKI-1 renal) was 3.47 µM and the GI50 (MALME-3M melanoma) was 1.89 µM. The TGI (MALME-3M melanoma) was 4.38 µM, the GI50 (DU-145 prostate) was 1.97 µM and the TGI (DU-145 prostate) was 3.9 µM. For the same compound, the GI50 (M14 melanoma) was 1.77 µM, the TGI (M14 melanoma) was 3.73 µM and the GI50 (NCI-H226 lung) was 1.8 µM. The TGI (NCI-H226 lung) was 4.27 µM, the GI50 (SR leukemia) was 1.67 µM and the TGI (SR leukemia) was 5.92 µM. For the same compound, the GI50 (MOLT-4 leukemia) was 1.86 µM, the TGI (MOLT-4 leukemia) was 5.13 µM and the GI50 (HL-60(TB) leukemia) was 2.21 µM. For the same compound, the TGI (HL-60(TB) leukemia) was 5.62 µM, the GI50 (A498 renal) was 3.94 µM and the TGI (A498 renal) was 14.6 µM. The GI50 (HCC-2998 colon) was 2.91 µM, the TGI (HCC-2998 colon) was 8.88 µM and the GI50 (SF-268 CNS) was 3.92 µM. For the same compound, the TGI (SF-268 CNS) was 29.4 µM, the GI50 (SK-MEL-28 melanoma) was 2.27 µM and the TGI (SK-MEL-28 melanoma) was 4.99 µM. The GI50 (BT-549 breast) was 2.15 µM, the TGI (BT-549 breast) was 6.26 µM and the GI50 (CCRF-CEM leukemia) was 1.47 µM. It also gave a TGI (CCRF-CEM leukemia) of 5.56 µM, a GI50 (SN12C renal) of 2.7 µM and a TGI (SN12C renal) of 8.58 µM. For the same compound, the GI50 (UACC-62 melanoma) was 2.73 µM, the TGI (UACC-62 melanoma) was 10.8 µM and the GI50 (RXF 393 renal) was 1.44 µM. It also gave a TGI (RXF 393 renal) of 2.86 µM, a GI50 (LOX IMVI melanoma) of 1.65 µM and a TGI (LOX IMVI melanoma) of 3.63 µM.
